Patent US20240270762A1, “PENICILLIN-BINDING PROTEIN INHIBITORS” (priority 2021, published 2024)
pIC50: −log10 of the molar value. ≈ marks a conversion by molar mass, not a printed value. Read-outs that look alike come from different tables or passages of the source.

What was measured:
[1] = test system: N. gonorrhoeae ATCC 49226; test: Liquid broth MIC in Fastidious broth; settings: Neisseria gonorrhoeae
[2] = test system: N. gonorrhoeae WHO L; test: Liquid broth MIC in Fastidious broth; settings: Neisseria gonorrhoeae
[3] = test system: N. gonorrhoeae MS11; test: Liquid broth MIC in Fastidious broth; settings: Neisseria gonorrhoeae
[4] = target: T1, PBP1a from Acinetobacter baumannii (ATCC 19606) (Acinetobacter baumannii, UniProt A0ABX6CK30); test: Bocillin-FL fluorescence polarization competition binding, A. baumannii PBP1a; settings: fluorescence polarization competition binding assay using Bocillin-FL; read-out: A. baumannii PBP1a Potency
T1 sequence (A0ABX6CK30 1-851): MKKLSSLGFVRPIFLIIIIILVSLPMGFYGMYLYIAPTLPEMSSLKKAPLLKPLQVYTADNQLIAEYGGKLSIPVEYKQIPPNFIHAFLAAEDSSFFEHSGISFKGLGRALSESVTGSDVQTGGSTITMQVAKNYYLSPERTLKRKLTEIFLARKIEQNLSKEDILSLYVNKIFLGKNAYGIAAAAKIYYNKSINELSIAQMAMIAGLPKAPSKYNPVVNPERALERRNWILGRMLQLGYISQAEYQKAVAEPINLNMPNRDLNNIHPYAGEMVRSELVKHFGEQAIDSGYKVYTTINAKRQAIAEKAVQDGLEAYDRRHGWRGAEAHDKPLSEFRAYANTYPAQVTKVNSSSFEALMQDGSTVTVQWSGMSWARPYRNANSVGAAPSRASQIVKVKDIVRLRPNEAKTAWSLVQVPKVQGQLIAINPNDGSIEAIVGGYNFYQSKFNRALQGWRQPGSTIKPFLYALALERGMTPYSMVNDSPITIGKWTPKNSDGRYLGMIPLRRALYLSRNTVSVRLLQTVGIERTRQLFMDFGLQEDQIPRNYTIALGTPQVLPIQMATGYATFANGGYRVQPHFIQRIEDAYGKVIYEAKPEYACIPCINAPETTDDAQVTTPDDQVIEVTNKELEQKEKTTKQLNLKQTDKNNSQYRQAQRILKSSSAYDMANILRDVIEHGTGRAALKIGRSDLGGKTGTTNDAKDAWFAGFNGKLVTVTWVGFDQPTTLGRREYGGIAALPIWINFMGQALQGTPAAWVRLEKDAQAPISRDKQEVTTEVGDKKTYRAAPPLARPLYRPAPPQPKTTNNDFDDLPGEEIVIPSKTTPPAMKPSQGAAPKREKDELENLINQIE
In short: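 Purified PBPs pre-incubated with inhibitor (E. coli PBP3 1.5 μM, 30 min; P. aeruginosa PBP3 0.75 μM, A. baumannii PBP1a 1 μM and PBP3 0.2 μM, 15 min), then Bocillin-FL 0.1 μM (0.05 μM for PBP1a) added; FP read up to 60 min. EC50 = concentration halving bound Bocillin-FL.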

[5] = test system: N. gonorrhoeae WHO G; test: Liquid broth MIC in Fastidious broth; settings: Neisseria gonorrhoeae
[6] = test system: N. gonorrhoeae WHO X; test: Liquid broth MIC in Fastidious broth; settings: Neisseria gonorrhoeae
[7] = test system: N. gonorrhoeae WHO K; test: Liquid broth MIC in Fastidious broth; settings: Neisseria gonorrhoeae
Description: Liquid broth-based assays were used for antibacterial testing of PBP inhibitors in Neisseria gonorrhoeae. Briefly, cryo-preserved bacterial cultures of clinical strains were streaked for isolation on Chocolate Agar (72 g/L (2×) GC Agar Base (BD #228950) and 2% (2×) Hemoglobin was autoclaved at 121° C. for 20 minutes to sterilize. Once cooled to ˜50° C. the 2×GC Agar Base and 2× Hemoglobin solutions are combined and 1% IsoVitaleX Enrichment (BD #211876) was added to the solution). Strains were incubated at 36° C. and 5% CO2 to allow growth of colonies, 24 hours before inoculum preparation. 2-fold serial dilutions of test compounds were conducted in a 96 well plate with a final volume of 75 μL per well at 2-fold the final desired concentration in Fastidious broth (Remel #R07664). For preparation of assay inoculum, a direct suspension was prepared by aseptically swabbing 10-15 colonies from agar plates into culture tubes containing 2 mL of fresh sterile saline. After the dilution plates were set up, direct suspensions were then diluted in a cuvette containing sterile saline and the optical density was measured at 600 nm. Inocula were diluted such that 75 μL of this culture in Fastidious broth results in a starting bacterial concentration of 5×10^5 CFU/mL when added to the dilution plates. The plates were incubated for ˜24 hours at 36° C. and 5% CO2.

[8] = test system: N. gonorrhoeae WHO Q; test: Liquid broth MIC in Fastidious broth; settings: Neisseria gonorrhoeae
[9] = ATCC49226, read-out: Minimum Inhibitory Concentration, ATCC 49226
[10] = read-out: Minimum Inhibitory Concentration, WHO L
[11] = MS11, read-out: Minimum Inhibitory Concentration, MS11
[12] = read-out: Minimum Inhibitory Concentration, WHO G
[13] = read-out: Minimum Inhibitory Concentration, WHO X
[14] = read-out: Minimum Inhibitory Concentration, WHO K
[15] = read-out: Minimum Inhibitory Concentration, WHO Q
[16] = ATCC49226, read-out: Minimum Inhibitory Concentration (MIC), N. gonorrhoeae ATCC 49226
[17] = read-out: Minimum Inhibitory Concentration (MIC), N. gonorrhoeae WHO L
[18] = MS11, read-out: Minimum Inhibitory Concentration (MIC), N. gonorrhoeae MS11
[19] = read-out: Minimum Inhibitory Concentration (MIC), N. gonorrhoeae WHO G
[20] = read-out: Minimum Inhibitory Concentration (MIC), N. gonorrhoeae WHO X
[21] = read-out: Minimum Inhibitory Concentration (MIC), N. gonorrhoeae WHO K
[22] = read-out: Minimum Inhibitory Concentration (MIC), N. gonorrhoeae WHO Q

Structure (SMILES)	MIC [1, 9] [mg/L]	MIC [2, 10] [mg/L]	MIC [3, 11] [mg/L]	pIC50 [4]	MIC [5, 12] [mg/L]	MIC [6, 13] [mg/L]	MIC [7, 14] [mg/L]	MIC [8, 15] [mg/L]	MIC [1, 16] [mg/L]	MIC [2, 17] [mg/L]	MIC [3, 18] [mg/L]	MIC [5, 19] [mg/L]	MIC [6, 20] [mg/L]	MIC [7, 21] [mg/L]	MIC [8, 22] [mg/L]
O=C(O)c1c(F)ccc2c1OB(O)[C@@H](NC(=O)C(NC(=O)N1CCN(C3CCN(C(=O)c4cccc(O)c4)CC3)C(=O)C1=O)c1cc(F)c(O)c(O)c1Cl)C2 (stereo partly drawn) [Example 293, (3R)-3-(2-(2-chloro-5-fluoro-3,4-dihydroxyphenyl)-2-(4-(1-(3-hydroxybenzoyl)piperidin-4-yl)-2,3-dioxopiperazine-1-carboxamido)acetamido)-7-fluoro-2-hydroxy-3,4-dihydro-2H-benzo[e][1,2]oxaborinine-8-carboxylic acid]	16 to 32 (≈ 20.4 to 40.7 µM)	> 64	16 to 32 (≈ 20.4 to 40.7 µM)	< 3.60	16 to 32 (≈ 20.4 to 40.7 µM)	> 64	> 64	> 64							
Cc1cnccc1C(=O)NCCCN1CCN(C(=O)NC(C(=O)N[C@H]2Cc3ccc(F)c(C(=O)O)c3OB2O)c2cc(F)c(O)c(O)c2Cl)C(=O)C1=O (stereo partly drawn) [Example 297, (3R)-3-(2-(2-chloro-5-fluoro-3,4-dihydroxyphenyl)-2-(4-(3-(3-methylisonicotinamido)propyl)-2,3-dioxopiperazine-1-carboxamido)acetamido)-7-fluoro-2-hydroxy-3,4-dihydro-2H-benzo[e][1,2]oxaborinine-8-carboxylic acid]	16 to 32 (≈ 21.1 to 42.2 µM)	> 64	16 to 32 (≈ 21.1 to 42.2 µM)	< 3.60	16 to 32 (≈ 21.1 to 42.2 µM)	> 64	> 64	> 64							
O=C(NCCCN1CCN(C(=O)NC(C(=O)N[C@H]2Cc3ccc(F)c(C(=O)O)c3OB2O)c2cc(F)c(O)c(O)c2Cl)C(=O)C1=O)c1ccc(O)c(Cl)c1 (stereo partly drawn) [Example 305, (3R)-3-(2-(4-(3-(3-chloro-4-hydroxybenzamido)propyl)-2,3-dioxopiperazine-1-carboxamido)-2-(2-chloro-5-fluoro-3,4-dihydroxyphenyl)acetamido)-7-fluoro-2-hydroxy-3,4-dihydro-2H-benzo[e][1,2]oxaborinine-8-carboxylic acid]	16 to 32 (≈ 20.1 to 40.3 µM)	> 64	16 to 32 (≈ 20.1 to 40.3 µM)	< 3.60	16 to 32 (≈ 20.1 to 40.3 µM)	> 64	> 64	> 64							
O=C(O)c1c(F)ccc2c1OB(O)[C@@H](NC(=O)C(NC(=O)N1CCN(CC3CCN(C(=O)Nc4cccc(O)c4)CC3)C(=O)C1=O)c1cc(F)c(O)c(O)c1Cl)C2 (stereo partly drawn) [Example 477, (3R)-3-(2-(2-chloro-5-fluoro-3,4-dihydroxyphenyl)-2-(4-((1-((3-hydroxyphenyl)carbamoyl)piperidin-4-yl)methyl)-2,3-dioxopiperazine-1-carboxamido)acetamido)-7-fluoro-2-hydroxy-3,4-dihydro-2H-benzo[e][1,2]oxaborinine-8-carboxylic acid]				< 3.60											
O=C(O)c1cccc2c1OB(O)[C@@H](NC(=O)C(NC(=O)N1CCN(CC(F)(F)F)C(=O)C1=O)c1ccc(P(=O)(O)O)cc1)C2 (stereo partly drawn) [Example 4, (3R)-3-(2-(2,3-dioxo-4-(2,2,2-trifluoroethyl)piperazine-1-carboxamido)-2-(4-phosphonophenyl)acetamido)-2-hydroxy-3,4-dihydro-2H-benzo[e][1,2]oxaborinine-8-carboxylic acid]									< 1	4 to 8 (≈ 6.23 to 12.5 µM)	< 1	< 1	4 to 8 (≈ 6.23 to 12.5 µM)	1 to 2 (≈ 1.56 to 3.11 µM)	1 to 2 (≈ 1.56 to 3.11 µM)
O=C(O)c1c(F)ccc2c1OB(O)[C@@H](NC(=O)C(NC(=O)N1CCN(CC3CCN(C(=O)c4cccc(O)c4)CC3)C(=O)C1=O)c1cc(F)c(O)c(O)c1Cl)C2 (stereo partly drawn) [Example 475, (3R)-3-(2-(2-chloro-5-fluoro-3,4-dihydroxyphenyl)-2-(4-((1-(3-hydroxybenzoyl)piperidin-4-yl)methyl)-2,3-dioxopiperazine-1-carboxamido)acetamido)-7-fluoro-2-hydroxy-3,4-dihydro-2H-benzo[e][1,2]oxaborinine-8-carboxylic acid]				< 3.60											
CS(=O)(=O)N1CCN(C(=O)N[C@@H](C(=O)N[C@H]2Cc3cccc(C(=O)O)c3OB2O)c2ccc(P(=O)(O)O)cc2)C1=O (single isomer, unassigned) [Example 6]									< 1	< 1	< 1	< 1	< 1	< 1	< 1
O=C(O)c1c(F)ccc2c1OB(O)[C@@H](NC(=O)C(NC(=O)N1CCN(C3CCN(C(=O)Nc4cccc(O)c4F)CC3)C(=O)C1=O)c1cc(F)c(O)c(O)c1Cl)C2 (stereo partly drawn) [Example 478, (3R)-3-(2-(2-chloro-5-fluoro-3,4-dihydroxyphenyl)-2-(4-(1-((2-fluoro-3-hydroxyphenyl)carbamoyl)piperidin-4-yl)-2,3-dioxopiperazine-1-carboxamido)acetamido)-7-fluoro-2-hydroxy-3,4-dihydro-2H-benzo[e][1,2]oxaborinine-8-carboxylic acid]				< 3.60											
CCN1CCN(C(=O)NC(C(=O)N[C@H]2Cc3cccc(C(=O)O)c3OB2O)c2cc(P(=O)(O)O)ccc2F)C(=O)C1=O (stereo partly drawn) [Example 2, (3R)-3-(2-(4-ethyl-2,3-dioxopiperazine-1-carboxamido)-2-(2-fluoro-5-phosphonophenyl)acetamido)-2-hydroxy-3,4-dihydro-2H-benzo[e][1,2]oxaborinine-8-carboxylic acid]									4 to 8 (≈ 6.6 to 13.2 µM)	> 64	4 to 8 (≈ 6.6 to 13.2 µM)	1 to 2 (≈ 1.65 to 3.3 µM)	16 to 32 (≈ 26.4 to 52.8 µM)	16 to 32 (≈ 26.4 to 52.8 µM)	4 to 8 (≈ 6.6 to 13.2 µM)
CCN1CCN(C(=O)NC(C(=O)N[C@H]2Cc3cccc(C(=O)O)c3OB2O)c2ccc(P(=O)(O)O)cc2F)C(=O)C1=O (stereo partly drawn) [Example 1, (3R)-3-(2-(4-ethyl-2,3-dioxopiperazine-1-carboxamido)-2-(2-fluoro-4-phosphonophenyl)acetamido)-2-hydroxy-3,4-dihydro-2H-benzo[e][1,2]oxaborinine-8-carboxylic acid]									< 1	1 to 2 (≈ 1.65 to 3.3 µM)	< 1	< 1	1 to 2 (≈ 1.65 to 3.3 µM)	< 1	< 1
CS(=O)(=O)N1CCN(C(=O)N[C@H](C(=O)N[C@H]2Cc3cccc(C(=O)O)c3OB2O)c2ccc(P(=O)(O)O)cc2)C1=O (single isomer, unassigned) [Example 5]									< 1	4 to 8 (≈ 6.55 to 13.1 µM)	< 1	< 1	4 to 8 (≈ 6.55 to 13.1 µM)	1 to 2 (≈ 1.64 to 3.28 µM)	< 1
NCCN1CCN(C(=O)NC(C(=O)N[C@H]2Cc3cccc(C(=O)O)c3OB2O)c2ccc(P(=O)(O)O)cc2)C(=O)C1=O (stereo partly drawn) [Example 3, (3R)-3-(2-(4-(2-aminoethyl)-2,3-dioxopiperazine-1-carboxamido)-2-(4-phosphonophenyl)acetamido)-2-hydroxy-3,4-dihydro-2H-benzo[e][1,2]oxaborinine-8-carboxylic acid]									< 1	4 to 8 (≈ 6.63 to 13.3 µM)	1 to 2 (≈ 1.66 to 3.32 µM)	< 1	4 to 8 (≈ 6.63 to 13.3 µM)	4 to 8 (≈ 6.63 to 13.3 µM)	1 to 2 (≈ 1.66 to 3.32 µM)
